Drawing on patent US9586978B2, “Anti-viral compounds” (AbbVie Inc., priority 2009, dated 2017), this text covers EC50 for 16 molecules.

One may read the EC50 as the concentration giving half of the maximal effect.

Common to all, as to format: cell-based, Hepatitis C virus
The subject of one test is HCV genotype 1a replicon. Description: HCV genotype 1a replicon assay. Particulars: Hepatitis C virus. From the text:
(§1) [drawing 14] employs a biphenyl linker between the imidazole moieties. See WO2008021927(BMS). The EC50 values of BMS-790052 against different HCV genotypes were shown by Nettles et al., “BMS-790052 is a First-in-class Potent Hepatitis C Virus (HCV) NS5A Inhibitor for Patients with Chronic HCV Infection: Results from a Proof-of-concept Study”, 59th Annual Meeting of the American Association for the Study of Liver Diseases (Oct. 31-Nov. 1, 2008, San Francisco, Calif.; www.natap.org/2008/AASLD/AASLD_06.htm). […] See also Gao et al., NATURE 465:96-100 (2010). The compounds in Table 1 use different linkers between the imidazole moieties. Table 1 depicts the EC50 values of these compounds when tested using respective replicon assays in the presence of 5% (v/v) fetal bovine serum (FBS).
(§2) Table 2 compares compounds containing unsubstituted benzimidazole to those containing halo-substituted benzimidazole. Anti-viral activities were assessed using wild-type replicons (e.g., 1b WT or 1a WT) as well as replicons containing specific NS5A mutations (e.g., 1b L28T, 1b Y93H, 1a L31V, 1a Y93C, 1a M28V, or 1a Q30E) in the absence of FBS.
(§3) Table 3 compares compounds with different linkers between the benzimidazole moieties. Anti-viral activities were determined using 1a and 1b replicon assays. “HP” refers to human plasma. […] As compared to the phenyl linker

Another test deals with HCV genotype 1b replicon. The test can be described thus: HCV genotype 1b replicon assay. Particulars: Hepatitis C virus.
From the text: as §1, §2, §3
(In antiviral work, replicon cells carry a viral genome segment that copies itself.)

Another test deals with HCV genotype 2a replicon. Description: HCV genotype 2a replicon assay. Particulars: Hepatitis C virus, absence of human plasma; Table 5; read-out: EC50 (nM, in the absence of HP) 2a.
From the text: as §1

A further test relates to HCV genotype 2b replicon. Description: HCV genotype 2b replicon assay. Particulars: Hepatitis C virus, absence of human plasma; Table 5; read-out: EC50 (nM, in the absence of HP) 2b.
From the text: as §1

The next test concerns HCV genotype 3a replicon. Description: HCV genotype 3a replicon assay. Particulars: Hepatitis C virus, read-out: EC50 (nM, in the absence of HP) 3a, absence of human plasma; Table 5.
From the text: as §1

Another test concerns HCV genotype 4a replicon. The test can be described thus: HCV genotype 4a replicon assay. Particulars: Hepatitis C virus, absence of human plasma; Table 5; read-out: EC50 (nM, in the absence of HP) 4a.
From the text: as §1

[1] abbreviates: 5% FBS and 40% human plasma, Table 3, read-out: EC50 (nM, in the presence of 5% FBS and 40% HP) 1a.
The mark [2] stands for this setting: 5% FBS, Table 3, read-out: EC50 (nM, in the presence of 5% FBS) 1a.
[3] abbreviates: 5% FBS and 40% human plasma, Table 3, read-out: EC50 (nM, in the presence of 5% FBS and 40% HP) 1b.
Where [4] appears, read: 5% FBS, Table 3, read-out: EC50 (nM, in the presence of 5% FBS) 1b.
[5] abbreviates: 40% human plasma, Table 5, read-out: EC50 (nM, in the presence of 40% HP) 1a.
Setting [6] is: 40% human plasma, Table 5, read-out: EC50 (nM, in the presence of 40% HP) 1b.

Like-named read-outs stand apart in the source and are kept apart here. Bounds are passed on as bounds.

For `COC(=O)N[C@H](C(=O)N1CCC[C@H]1c1nc2cc([C@H]3CC[C@H](c4ccc5[nH]c([C@@H]6CCCN6C(=O)[C@@H](NC(=O)OC)C(C)C)nc5c4)N3)ccc2[nH]1)C(C)C`, the 50% effective concentration (EC50) in the test on HCV genotype 1a replicon (setting [1]) is 2500 to 8000 nM; in the test on HCV genotype 1a replicon (setting [2]), greater than 250 nM; in the test with HCV genotype 1b replicon (setting [3]) it was greater than 4500 nM; with HCV genotype 1b replicon (setting [4]), greater than 250 nM.

Turning to `COC(=O)N[C@H](C(=O)N1CCC[C@H]1c1nc2cc(-c3ccc(-c4ccc5nc([C@@H]6CCCN6C(=O)[C@@H](NC(=O)OC)C(C)C)[nH]c5c4)nc3)ccc2[nH]1)C(C)C`, the EC50 in the test with HCV genotype 1a replicon (setting [1]) is less than 3.2 nM; with HCV genotype 1a replicon (setting [2]) it was less than 0.32 nM; with HCV genotype 1b replicon (setting [3]), less than 3.2 nM; with HCV genotype 1b replicon (setting [4]) it was less than 0.32 nM.

For the molecule `CCOC(=O)N[C@H](C(=O)N1CCC[C@H]1c1nc2cc(-c3ccc(-c4ccc5nc([C@@H]6CCCN6C(=O)[C@@H](NC(=O)OCC)C(C)C)[nH]c5c4)nc3)ccc2[nH]1)C(C)C`, the EC50 in the test with HCV genotype 1a replicon (setting [1]) amounted to 83 nM; with HCV genotype 1a replicon (setting [2]), 6.8 nM; in the test with HCV genotype 1b replicon (setting [3]) it was 190 nM; in the test with HCV genotype 1b replicon (setting [4]), 2.9 nM.

On to `COC(=O)N[C@H](C(=O)N1CCC[C@H]1C(=O)Nc1ccc([C@@H]2CC[C@@H](c3ccc(NC(=O)[C@@H]4CCCN4C(=O)[C@@H](NC(=O)OC)C(C)C)cc3)N2)cc1)C(C)C`, for which the EC50 is 1200 nM in the test on HCV genotype 1a replicon (5% FBS and 40% human plasma, Table 4, read-out: EC50 (nM, in the presence of 5% FBS and 40% HP) 1a); 290 nM in the test on HCV genotype 1a replicon (5% FBS, Table 4, read-out: EC50 (nM, in the presence of 5% FBS) 1a); 2400 nM in the test with HCV genotype 1b replicon (5% FBS and 40% human plasma, Table 4, read-out: EC50 (nM, in the presence of 5% FBS and 40% HP) 1b); 320 nM in the test on HCV genotype 1b replicon (5% FBS, Table 4, read-out: EC50 (nM, in the presence of 5% FBS) 1b).

As to `COC(=O)N[C@H](C(=O)N1CCC[C@H]1c1nc2cc([C@H]3CC[C@H](c4ccc5[nH]c([C@@H]6CCCN6C(=O)[C@@H](NC(=O)OC)C(C)C)nc5c4)N3c3ccc(C(C)(C)C)cc3)ccc2[nH]1)C(C)C`, the EC50 was 0.1 nM in the test on HCV genotype 1a replicon (setting [5]); 0.3 nM in the test on HCV genotype 1b replicon (setting [6]); 0.2 nM in the test with HCV genotype 2a replicon; no more than 0.05 nM in the test with HCV genotype 2b replicon; no more than 0.05 nM in the test with HCV genotype 3a replicon; no more than 0.05 nM in the test on HCV genotype 4a replicon.

Consider `COC(=O)N[C@H](C(=O)N1CCC[C@H]1c1nc2cc([C@H]3CC[C@H](c4ccc5[nH]c([C@@H]6CCCN6C(=O)[C@@H](NC(=O)OC)C(C)C)nc5c4)N3c3ccc(C4CC4)cc3)ccc2[nH]1)C(C)C`, for which the EC50 with HCV genotype 1a replicon (setting [5]) is 0.1 nM; with HCV genotype 1b replicon (setting [6]) it was 0.3 nM; with HCV genotype 2a replicon, no more than 0.05 nM; with HCV genotype 2b replicon, no more than 0.05 nM; in the test on HCV genotype 3a replicon, no more than 0.05 nM; in the test on HCV genotype 4a replicon, no more than 0.05 nM.

As to `COC(=O)N[C@H](C(=O)N1C[C@@H](OC)C[C@H]1c1nc2cc([C@H]3CC[C@H](c4ccc5[nH]c([C@@H]6C[C@H](OC)CN6C(=O)[C@@H](NC(=O)OC)C(C)C)nc5c4)N3c3ccc(C(C)(C)C)cc3)ccc2[nH]1)C(C)C`, the EC50 in the test on HCV genotype 1a replicon (setting [5]) was 0.3 nM; with HCV genotype 1b replicon (setting [6]), 0.8 nM.

Regarding `COC(=O)N[C@H](C(=O)N1CCC[C@H]1c1nc2cc([C@H]3CC[C@H](c4ccc5[nH]c([C@@H]6CCCN6C(=O)[C@@H](NC(=O)OC)C(C)C)nc5c4)N3c3ccc(N4CCCCC4)c(F)c3)ccc2[nH]1)C(C)C`, the EC50 is 0.2 nM with HCV genotype 1a replicon (setting [5]); 0.4 nM in the test on HCV genotype 1b replicon (setting [6]); no more than 0.05 nM in the test on HCV genotype 2a replicon; no more than 0.05 nM in the test with HCV genotype 2b replicon; no more than 0.05 nM with HCV genotype 3a replicon; no more than 0.05 nM in the test on HCV genotype 4a replicon.

As to `COC(=O)N[C@H](C(=O)N1CCC[C@H]1c1nc2ccc([C@H]3CC[C@H](c4ccc5nc([C@@H]6CCCN6C(=O)[C@@H](NC(=O)OC)C(C)C)[nH]c5c4)N3c3ccc(C4CC4)cc3F)cc2[nH]1)C(C)C`, the EC50 is 0.1 nM in the test with HCV genotype 1a replicon (setting [5]); 0.2 nM in the test on HCV genotype 1b replicon (setting [6]); no more than 0.05 nM with HCV genotype 2a replicon; no more than 0.05 nM with HCV genotype 2b replicon; no more than 0.05 nM in the test on HCV genotype 3a replicon; no more than 0.05 nM in the test with HCV genotype 4a replicon.

With `COC(=O)N[C@H](C(=O)N1CCC[C@H]1c1nc2cc([C@H]3CC[C@H](c4ccc5[nH]c([C@@H]6CCCN6C(=O)[C@@H](NC(=O)OC)C(C)C)nc5c4)N3c3ccc(N4CCCCC4)c(Cl)c3)ccc2[nH]1)C(C)C`, the EC50 in the test on HCV genotype 1a replicon (setting [5]) is 0.2 nM; in the test on HCV genotype 1b replicon (setting [6]), 0.2 nM; in the test with HCV genotype 2a replicon, no more than 0.05 nM; in the test with HCV genotype 2b replicon it was no more than 0.05 nM; with HCV genotype 3a replicon, no more than 0.05 nM; in the test with HCV genotype 4a replicon, no more than 0.05 nM.

Regarding `COC(=O)N[C@H](C(=O)N1CCC[C@H]1c1nc2cc([C@H]3CC[C@H](c4ccc5[nH]c([C@@H]6CCCN6C(=O)[C@@H](NC(=O)OC)C(C)C)nc5c4)N3c3ccc(N4CCCCC4)c(C(F)(F)F)c3)ccc2[nH]1)C(C)C`, the half-maximal effective concentration (EC50) was 0.6 nM in the test on HCV genotype 1a replicon (setting [5]); 0.3 nM with HCV genotype 1b replicon (setting [6]); 0.5 nM with HCV genotype 2a replicon; no more than 0.05 nM in the test on HCV genotype 2b replicon; no more than 0.05 nM with HCV genotype 3a replicon; no more than 0.05 nM in the test on HCV genotype 4a replicon.

For `COC(=O)N[C@H](C(=O)N1CCC[C@H]1c1nc2cc([C@H]3CC[C@H](c4ccc5[nH]c([C@@H]6CCCN6C(=O)[C@@H](NC(=O)OC)C(C)C)nc5c4)N3c3ccc(N4CCCCC4)c(C#N)c3)ccc2[nH]1)C(C)C`, the EC50 was 0.4 nM with HCV genotype 1a replicon (setting [5]); 0.5 nM with HCV genotype 1b replicon (setting [6]); 0.07 nM with HCV genotype 2a replicon; no more than 0.05 nM with HCV genotype 2b replicon; no more than 0.05 nM with HCV genotype 3a replicon; no more than 0.05 nM with HCV genotype 4a replicon.

In the case of `COC(=O)N[C@H](C(=O)N1CCC[C@H]1c1nc2cc([C@H]3CC[C@H](c4ccc5[nH]c([C@@H]6CCCN6C(=O)[C@@H](NC(=O)OC)C(C)C)nc5c4)N3c3cc(F)c(N4CCCCC4)c(F)c3)ccc2[nH]1)C(C)C`, the EC50 in the test with HCV genotype 1a replicon (setting [5]) is 0.1 nM; in the test on HCV genotype 1b replicon (setting [6]), 0.2 nM; in the test on HCV genotype 2a replicon it was no more than 0.05 nM; with HCV genotype 2b replicon, no more than 0.05 nM; in the test with HCV genotype 3a replicon, no more than 0.05 nM; in the test on HCV genotype 4a replicon, no more than 0.05 nM.

With `COC(=O)N[C@H](C(=O)N1CCC[C@H]1c1nc2cc([C@H]3CC[C@H](c4ccc5[nH]c([C@@H]6CCCN6C(=O)[C@@H](NC(=O)OC)C(C)C)nc5c4)N3c3ccc(C4CC4)c(F)c3)ccc2[nH]1)C(C)C`, the EC50 in the test with HCV genotype 1a replicon (setting [5]) was 0.1 nM; in the test on HCV genotype 1b replicon (setting [6]), 0.1 nM; with HCV genotype 2a replicon it was no more than 0.05 nM; in the test on HCV genotype 2b replicon it was no more than 0.05 nM; in the test on HCV genotype 3a replicon it was no more than 0.05 nM; in the test with HCV genotype 4a replicon, no more than 0.05 nM.

With `COC(=O)N[C@H](C(=O)N1CCC[C@H]1C(=O)Nc1ccc([C@H]2CC[C@H](c3ccc(NC(=O)[C@@H]4CCCN4C(=O)[C@@H](NC(=O)OC)C(C)C)cc3)N2c2ccc(C(C)(C)C)cc2)cc1)C(C)C`, the EC50 was 0.2 nM in the test on HCV genotype 1a replicon (setting [5]); 0.1 nM in the test with HCV genotype 1b replicon (setting [6]); no more than 0.05 nM in the test on HCV genotype 2a replicon; no more than 0.05 nM in the test on HCV genotype 2b replicon; no more than 0.05 nM with HCV genotype 3a replicon; no more than 0.05 nM with HCV genotype 4a replicon.

For the molecule `COC(=O)N[C@H](C(=O)N1CCC[C@H]1c1nc2cc([C@H]3CC[C@H](c4ccc5[nH]c([C@@H]6CCCN6C(=O)[C@@H](NC(=O)OC)C(C)C)nc5c4)N3c3cc(F)c(N4C[C@H]5CCCC[C@H]5C4)c(F)c3)ccc2[nH]1)C(C)C` [Example 4.3, methyl{(2S)-1-[(2S)-2-{5-[(2R,5R)-1-{3,5-difluoro-4-[(3aR,7aS)-octahydro-2H-isoindol-2-yl]phenyl}-5-{2-[(2S)-1-{(2S)-2-[(methoxycarbonyl)amino]-3-methylbutanoyl}pyrrolidin-2-yl]-1H-benzimidazol-5-yl}pyrrolidin-2-yl]-1H-benzimidazol-2-yl}pyrrolidin-1-yl]-3-methyl-1-oxobutan-2-yl}carbamate], the values for the EC50 with HCV genotype 1a replicon (setting [5]) and with HCV genotype 1b replicon (setting [6]) were 0.1 nM and 0.2 nM, respectively.
